In this assay the target is T1, human TPO receptor (Homo sapiens, UniProt P40238).
T1 construct: expressed in transfected cells
T1 sequence (P40238 26-635): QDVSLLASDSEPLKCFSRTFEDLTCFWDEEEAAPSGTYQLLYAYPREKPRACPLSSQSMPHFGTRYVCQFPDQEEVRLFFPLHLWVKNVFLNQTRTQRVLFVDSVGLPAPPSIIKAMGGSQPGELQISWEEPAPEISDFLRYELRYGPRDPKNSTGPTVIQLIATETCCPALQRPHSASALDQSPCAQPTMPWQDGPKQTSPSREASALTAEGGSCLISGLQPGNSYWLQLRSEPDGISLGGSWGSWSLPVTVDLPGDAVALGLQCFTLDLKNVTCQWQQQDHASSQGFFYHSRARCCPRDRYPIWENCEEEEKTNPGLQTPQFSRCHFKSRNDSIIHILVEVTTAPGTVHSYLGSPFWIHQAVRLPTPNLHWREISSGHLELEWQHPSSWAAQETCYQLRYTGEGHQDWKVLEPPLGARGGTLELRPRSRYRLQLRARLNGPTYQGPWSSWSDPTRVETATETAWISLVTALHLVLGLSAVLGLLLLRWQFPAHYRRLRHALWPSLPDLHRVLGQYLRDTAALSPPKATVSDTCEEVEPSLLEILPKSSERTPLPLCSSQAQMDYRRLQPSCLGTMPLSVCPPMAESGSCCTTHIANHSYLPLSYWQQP
As to the kind of experiment: Proliferation of TPO-dependent cell line UT7/EPO-mpl, MTT method (Assay Examples 1, 3, 4). Format: cell-based. Particulars: UT7/EPO-mpl cells; for EC50: concentration giving 50% of the maximum cell growth observed with the same compound; for Efficacy (%) (maximal growth rate) / Emax: value in the presence of 10 ng/ml TPO taken as 100% standard, method of Assay Example 1; for Emax: read-out: Efficacy (%) (maximal growth rate). Here is the method:
The reactivity of Synthetic Example 56, the compound of the present invention, with thrombopoietin (TPO) receptor was assayed using a human leukemic cell line, UT7/EPO-mpl.
UT7/EPO-mpl is a stable transformed cell line obtained by introducing into human leukemic cell line UT7/EPO a vector that induces expression of human TPO receptor (c-mp1) under control of a cytomegaloviral promoter by the method of Takatoku et al. (J. Biol. Chem., 272:7259-7263 (1997)). […] These two cell lines were subcultured in Iscove's modified Dulbecco's medium (IMDM; GIBCO) containing 10% fetal bovine serum (FBS; TRACE SCIENTIFIC) using a CO2 incubator (5% CO2, 37° C.).
The subcultured cells described above were washed twice with phosphate buffered saline (PBS) and suspended in IMDM containing 10% FBS at a cell density of 6×10^4 cells/ml. The cell suspension was transferred to a 96-well tissue culture plate (CORNING) in 100-μl aliquots. Then either TPO (PeproTech EC) or Synthetic Example 56 dissolved in dimethylsulfoxide (DMSO) was diluted 83-fold with IMDM containing 10% FBS and added to the aforementioned cell suspension in 20-μl aliquots. The suspension was incubated in a CO2 incubator (5% CO2, 37° C.) for 4 days. Cell proliferation was assayed according to the method of Mosmann et al. (J. Immunol. Methods, 65:55-63 (1983)). A 10-μl aliquot of 5 mg/ml MTT reagent (SIGMA) was added to each well of the tissue culture plate and the plate was incubated at 37° C. for 4 h. The formazan pigment generated was dissolved by adding 150 μl per well of 0.1 M HCl/isopropanol solution and the absorbance of the resulting pigment solution was measured at 550 nm with a 96-well microplate reader (BIO-RAD, M450).
The following Synthetic Examples were tested according to the method of Assay Example 1 to determine the maximal growth rate (efficacy), expressed by taking the value with human leukemic cell line UT7/EPO-mpl observed in the presence of 10 ng/ml TPO as 100% standard, and the concentration of each compound that yields a growth rate corresponding to 50% of the maximum cell growth observed with the same compound (EC50).
Synthetic Example 56, the compound of the present invention, and four compounds (Reference Synthetic Examples 1 to 4) described in a publication of international patent application (Publication No. WO01/34585, applied by SmithKline Beecham Corp.) were tested according to the method of Assay Example 1.
(In general: Tetrazolium dyes change colour on reduction, which living cells bring about.)

Setting [1] is: read-out: EC50 (ng/ml) (converted).

Experimental findings from US8053453B2, “Pyrazolone compounds and thrombopoietin receptor activator” (Nissan Chemical Industries, Ltd., priority 2002, dated 2011) are described below.

Each structure is given as a SMILES string. Like-named read-outs stand apart in the source and are kept apart here.

As for `CC1=NN(c2ccc(C(F)(F)F)cc2)C(=O)C1=C(C)NNC(=O)c1ccccc1[N+](=O)[O-]` [compound 35], the “EC50” value was determined as 0.034 µg/mL and the “Efficacy (%) (maximal growth rate)” value amounted to 99%.

As for `CC1=NN(c2ccc(Cl)c(Cl)c2)C(=O)C1=C(C)NNC(=O)c1ccc(O)cc1` [compound 62], the “EC50” value worked out at 0.0064 µg/mL and the “Efficacy (%) (maximal growth rate)” value is reported as 57%.

For `CC1=NN(c2ccc(C)c(C)c2)C(=O)C1=C(C)NNC(=O)c1ccc(O)cc1` [compound 54], the “EC50” value is 0.0075 µg/mL and the “Efficacy (%) (maximal growth rate)” value was 61%.

Regarding `CC1=NN(c2ccc(I)cc2)C(=O)C1=C(C)NNC(=O)c1ccc(O)c(O)c1` [compound 41], the “EC50” value was found to be 0.032 µg/mL and the “Efficacy (%) (maximal growth rate)” value was 115%.

On to `CC1=NN(c2ccc(Cl)c(Cl)c2)C(=O)C1=C(C)NNC(=O)c1ccc(N)cc1` [compound 77], for which the “EC50” value was 0.0051 µg/mL and the “Efficacy (%) (maximal growth rate)” value is given as 78%.

Regarding `CC1=NN(c2ccc(C(F)(F)F)cc2)C(=O)C1=C(C)NNC(=O)c1ccc(C(=O)O)cc1` [compound 11], the “EC50” value amounted to 0.002 µg/mL and the “Efficacy (%) (maximal growth rate)” value is 83%.

Turning to `CC1=NN(c2ccc(C(C)(C)C)cc2)C(=O)C1=C(C)NNC(=O)c1ccc(O)cc1O` [compound 26], the “EC50” value stood at 0.0029 µg/mL and the “Efficacy (%) (maximal growth rate)” value was 78%.

For the molecule `CC1=NN(c2cccc(C(F)(F)F)c2)C(=O)C1=C(C)NNC(=O)c1ccc(C(=O)O)cc1` [compound 9], the “EC50” value stood at 0.0051 µg/mL and the “Efficacy (%) (maximal growth rate)” value is given as 90%.

Regarding `CC1=NN(c2cccc([N+](=O)[O-])c2)C(=O)C1=C(C)NNC(=O)c1cccc([N+](=O)[O-])c1` [compound 84], the “EC50” value is 0.13 µg/mL and the “Efficacy (%) (maximal growth rate)” value was determined as 109%.

As to `CC1=NN(c2ccc(C(C)(C)C)cc2)C(=O)C1=C(C)NNC(=O)c1ccc(C(=O)O)cc1` [compound 5], the “EC50” value stood at 0.0034 µg/mL and the “Efficacy (%) (maximal growth rate)” value is 86%.

For the molecule `CC1=NN(c2ccc(C(C)(C)C)cc2)C(=O)C1=C(C)NNC(=O)c1ccccc1[N+](=O)[O-]` [compound 28], the “EC50” value is 0.037 µg/mL and the “Efficacy (%) (maximal growth rate)” value came to 99%.

Regarding `CC1=NN(c2ccccc2)C(=O)C1=C(C)NNC(=O)c1ccc(O)c(O)c1` [compound 20], the “EC50” value amounted to 0.038 µg/mL and the “Efficacy (%) (maximal growth rate)” value worked out at 91%.

Regarding `CC1=NN(c2ccc(Cl)c(Cl)c2)C(=O)C1=C(C)NNC(=O)c1ccccc1[N+](=O)[O-]` [compound 66], the “EC50” value is 0.033 µg/mL and the “Efficacy (%) (maximal growth rate)” value is reported as 133%.

For `COC(=O)c1ccc(C(=O)NNC(C)=C2C(=O)N(c3ccc(C)c(C)c3)N=C2C)cc1` [compound 6], the Emax came to 64%. For the same molecule, the EC50 under setting [1] was 17.6 nM.

For `CC1=NN(c2ccccc2)C(=O)C1=C(C)NNC(=O)c1ccccc1O` [compound 16], the “EC50” value worked out at 0.061 µg/mL and the “Efficacy (%) (maximal growth rate)” value is recorded as 58%.

`CC1=NN(c2ccc(Cl)c(Cl)c2)C(=O)C1=C(C)NNC(=O)c1ccccc1O` [compound 61]: the “EC50” value came to 0.029 µg/mL and the “Efficacy (%) (maximal growth rate)” value came out at 91%.

`CC1=NN(c2ccc(C)c(C)c2)C(=O)C1=C(C)NNC(=O)c1cccc(C(=O)O)c1` [compound 13]: the “EC50” value was 0.28 µg/mL and the “Efficacy (%) (maximal growth rate)” value came out at 99%.

As for `CC1=NN(c2ccc(C(C)(C)C)cc2)C(=O)C1=C(C)NNC(=O)c1cccc(O)c1` [compound 81], the “EC50” value worked out at 0.0072 µg/mL and the “Efficacy (%) (maximal growth rate)” value is listed as 84%.

Take `CC1=NN(c2cccc(C(F)(F)F)c2)C(=O)C1=C(C)NNC(=O)c1ccc(O)c(O)c1` [compound 49]: the “EC50” value came out at 0.0091 µg/mL and the “Efficacy (%) (maximal growth rate)” value worked out at 62%.

Regarding `CC1=NN(c2ccc(I)cc2)C(=O)C1=C(C)NNC(=O)c1ccc(O)cc1O` [compound 1], the “EC50” value turned out to be 0.0074 µg/mL and the “Efficacy (%) (maximal growth rate)” value was 74%.

Take `CC1=NN(c2ccc(C)c(C)c2)C(=O)C1=C(C)NNC(=O)c1ccc(C(C)(C)C)cc1` [compound 76]: the “EC50” value turned out to be 0.046 µg/mL and the “Efficacy (%) (maximal growth rate)” value is listed as 79%.

Regarding `CC1=NN(c2ccc(C(C)(C)C)cc2)C(=O)C1=C(C)NNC(=O)c1cccc(N)c1` [compound 70], the “EC50” value is 0.023 µg/mL and the “Efficacy (%) (maximal growth rate)” value was 87%.

For the molecule `CC1=NN(c2ccccn2)C(=O)C1=C(C)NNC(=O)c1ccc(O)cc1O` [compound 87], the “EC50” value was found to be 0.6 µg/mL and the “Efficacy (%) (maximal growth rate)” value was 71%.

For the molecule `CC1=NN(c2cccc(C(F)(F)F)c2)C(=O)C1=C(C)NNC(=O)c1ccc(O)cc1` [compound 46], the “EC50” value came to 0.015 µg/mL and the “Efficacy (%) (maximal growth rate)” value came to 82%.

As to `CC1=NN(c2ccc(C)c(C)c2)C(=O)C1=C(C)NNC(=O)c1cccc(O)c1` [compound 82], the “EC50” value is 0.026 µg/mL and the “Efficacy (%) (maximal growth rate)” value is listed as 84%.

`CC1=NN(c2ccc(Cl)c(Cl)c2)C(=O)C1=C(C)NNC(=O)c1ccc(O)cc1O` [compound 64]: the “EC50” value was 0.0077 µg/mL and the “Efficacy (%) (maximal growth rate)” value stood at 74%.

Regarding `Cc1ccc(-n2nc(C)c(C=NN3C(=O)C(=Cc4ccc(C(=O)O)cc4)SC3=S)c2O)cc1C` [Reference Synthetic Example 1, 5-(4-carboxybenzylidene)-3-[(1-{3,4-dimethylphenyl}-5-hydroxy-3-methyl-1H-pyrazol-4-ylmethylene)amino]-2-thioxothiazolidin-4-one, reference compound], the Emax is 7%.

As for `Cc1ccc(-n2nc(C)c(C=NN3CC(=O)N(c4ccc(C(=O)O)cc4)C3=S)c2O)cc1C` [Reference Synthetic Example 4, 3-(4-carboxyphenyl)-1-[(1-{3,4-dimethylphenyl}-5-hydroxy-3-methyl-1H-pyrazol-4-ylmethylene)amino]-2-thioxoimidazolidin-4-one, reference compound], the Emax was determined as 67%. In addition, under setting [1], the EC50 was 3020 nM.

On to `CC1=NN(c2ccc(I)cc2)C(=O)C1=C(C)NNC(=O)c1ccc(O)cc1` [compound 39], for which the “EC50” value is 0.028 µg/mL and the “Efficacy (%) (maximal growth rate)” value came out at 97%.

`CC1=NN(c2ccc(I)cc2)C(=O)C1=C(C)NNC(=O)c1cccc([N+](=O)[O-])c1` [compound 43]: the “EC50” value came to 0.083 µg/mL and the “Efficacy (%) (maximal growth rate)” value came to 87%.

With `CC1=NN(c2ccc(C(F)(F)F)cc2)C(=O)C1=C(C)NNC(=O)c1ccccc1O` [compound 30], the “EC50” value was 0.019 µg/mL and the “Efficacy (%) (maximal growth rate)” value came out at 106%.

With `CC1=NN(c2ccc(C)c(C)c2)C(=O)C1=C(C)NNC(=O)c1cccc(N)c1` [compound 74], the “EC50” value came to 0.025 µg/mL and the “Efficacy (%) (maximal growth rate)” value is given as 77%.

In the case of `CC1=NN(c2ccc(C(F)(F)F)cc2)C(=O)C1=C(C)NNC(=O)c1cc2ccccc2cc1O` [compound 32], the “EC50” value worked out at 0.037 µg/mL and the “Efficacy (%) (maximal growth rate)” value is 90%.
